Results from patent US20060074243A1, “Hydroxamic acid and amide compounds and their use as protease inhibitors” (Pharmacia Corporation, priority 2002, published 2006).
pKi: −log10 of the molar value.

Columns and labels:
Assay in all cases: In vitro MMP inhibition analysis (fluorogenic peptide substrate cleavage), Ki
Assay type in all cases: biochemical
Human recombinant MMP-1 = biological target: T1, Human recombinant MMP-1 (Homo sapiens, UniProt P03956)
T1 construct: made in house; host or cells: MMP-1-transfected HT-1080 cells (spent media)
T1 sequence (P03956 100-469): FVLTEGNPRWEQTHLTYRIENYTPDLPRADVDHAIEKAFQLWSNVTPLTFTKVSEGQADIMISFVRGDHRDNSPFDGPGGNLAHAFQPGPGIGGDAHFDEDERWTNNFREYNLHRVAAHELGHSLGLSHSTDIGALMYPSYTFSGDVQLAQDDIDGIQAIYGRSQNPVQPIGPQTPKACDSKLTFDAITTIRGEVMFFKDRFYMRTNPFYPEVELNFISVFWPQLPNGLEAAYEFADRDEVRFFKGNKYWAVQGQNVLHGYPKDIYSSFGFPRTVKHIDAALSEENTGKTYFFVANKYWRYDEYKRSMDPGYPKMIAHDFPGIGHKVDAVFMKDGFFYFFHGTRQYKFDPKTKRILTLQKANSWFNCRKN
Experimental: (§1) Several compounds and salts were analyzed in an in vitro assay to determine their ability to inhibit the MMP cleavage of peptide substrates. Inhibition constant (Ki) were calculated from the assayed compound-MMP interactions.
(§2) Human recombinant MMP-1, MMP-2, MMP-9, MMP-13, and MMP-14 were used in this assay. All enzymes were prepared in Assignee's laboratories following usual laboratory procedures. Protocols for the preparation and use of these enzymes are available in the scientific literature. See, e.g., Enzyme Nomenclature (Academic Press, San Diego, Calif., 1992) (and the citations therein). See also, Frije et al., J. Biol. Chem., 26(24), 16766-73 (1994).
The MMP-1 proenzyme was purified from the spent media of MMP-1-transfected HT-1080 cells provided by Dr. Harold Welgus of Washington University (St. Louis, Mo.). The protein was purified on a zinc chelating column.
(§3) All MMPs were activated using 4-aminophenylmercuric acetate (“APMA”, Sigma Chemical, St. Louis, Mo.) or trypsin. MMP-9 also was activated using human recombinant MMP-3 (purified in Assignee's laboratory following standard cloning and purification techniques).
(§4) The following fluorogenic, methoxycoumarin-containing polypeptide substrate (I) was used in the MMP inhibition assays: MCA-ArgProLeuGlyLeuDpaAlaArgGluArgNH2 (I) “MCA” is 7-methoxycoumarin-4-yl acetyl. Substrate (I) was prepared Assignee's laboratory. In the absence of MMP inhibitory activity, the substrate is cleaved at the Gly-Leu peptide bond. This cleavage separates the highly fluorogenic peptide from the 2,4-dinitrophenyl quencher, thus resulting in increase of fluorescent intensity.
(§5) The stock solutions of the assayed compounds and salts were prepared in […] (DMSO). These stock solutions were diluted in Buffer A (100 mM Tris-HCl, 100 mM NaCl, 10 mM CaCl2, 0.05% polyoxyethylene 23 lauryl ether, pH 7.5) to obtain solutions with different compound concentrations, i.e., assay solutions with different concentrations of the assayed […] compound. The experiment controls contained the same amount of Buffer A/DMSO as the assayed sample, but contained none of the tested compound or salt.
(§6) The assays from which the Ki determinations were made were performed as follows. The assayed compound samples were incubated in separate wells of untreated white polystyrene plates (Nunc Nalgene International, Rochester, N.Y.), and analyzed on a Tecan SpectraFlour Plus plate reader. The excitation wavelength was 330 nm, and the emission wavelength—420 nm. All samples (assayed compounds and controls) were incubated in separate plate wells at room temperature for 1 hr in the presence of 4 μM of MMP substrate (I). In the absence of MMP inhibitory activity, substrate (I) was cleaved at the Gly-Leu bond resulting in an increase of relative fluorescence. Inhibition was observed as a reduced rate of this increase in relative fluorescence. […] This protocol is a modification of method by Knight et al., FEBS Lett., 296(3), 263-266 (1992). Apparent inhibitory constants were determined by non-linear regression of reaction velocity as a function of inhibitor and enzyme concentration using Morrison's equation, as described by Kuzmic, Anal. Biochem. 286, 45-50 (2000). Modifications were made in the non-linear regression method to allow a common control reaction rate and effective enzyme concentration to be shared between all dose-response relationships on a given assay plate. Since the substrate concentration was chosen to be at or below the Km, the apparent Ki's from this analysis were reported as Ki's without correction for the influence of substrate.
(§7) The above protocols were used to determine Ki constants for the compounds in Examples 2-35 above. All Ki values in Table 1 are given in nM units.

Human recombinant MMP-14 = biological target: T2, Human recombinant MMP-14 (Homo sapiens, UniProt P50281)
T2 construct: The catalytic domain enzyme was expressed in E. coli inclusion bodies, solubilized in urea; made in house
Experimental: as §1, §2
The MMP-14 full length cDNA was provided by Dr. Gregory Goldberg of Washington University (St. Louis, Mo.). The catalytic domain enzyme was expressed in E. coli inclusion bodies, solubilized in urea, purified on a preparative […] reverse phase HPLC column, and then refolded in the presence of zinc acetate and purified for use.
as §3, §4, §5, §6, §7

Human recombinant MMP-2 = biological target: T3, Human recombinant MMP-2 (Homo sapiens, UniProt P08253)
T3 construct: made in house; host or cells: MMP-2-transfected p2AHT2 cells
T3 sequence (P08253 110-660): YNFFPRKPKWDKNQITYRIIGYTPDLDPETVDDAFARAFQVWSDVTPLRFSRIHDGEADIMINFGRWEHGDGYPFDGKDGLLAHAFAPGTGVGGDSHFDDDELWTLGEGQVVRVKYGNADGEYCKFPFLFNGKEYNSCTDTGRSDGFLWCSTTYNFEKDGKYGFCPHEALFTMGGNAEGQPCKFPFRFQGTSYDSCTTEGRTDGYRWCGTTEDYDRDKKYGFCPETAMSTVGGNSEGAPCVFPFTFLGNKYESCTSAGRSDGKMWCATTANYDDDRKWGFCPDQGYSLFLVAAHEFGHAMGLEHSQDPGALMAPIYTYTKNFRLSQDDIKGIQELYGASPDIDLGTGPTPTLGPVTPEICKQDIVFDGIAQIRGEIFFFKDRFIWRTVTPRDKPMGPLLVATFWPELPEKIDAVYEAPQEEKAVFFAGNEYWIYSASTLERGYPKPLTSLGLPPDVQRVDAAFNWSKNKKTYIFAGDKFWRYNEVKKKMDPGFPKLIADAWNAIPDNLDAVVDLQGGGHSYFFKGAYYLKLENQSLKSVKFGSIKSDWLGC
Experimental: as §1, §2
The MMP-2 proenzyme was purified by gelatin Sepharose chromatography from MMP-2-transfected p2AHT2 cells provided by Dr. Gregory Goldberg of Washington University (St. Louis, Mo.).
as §3, §4, §5, §6, §7

Row | Structure (SMILES) | pKi (Human recombinant MMP-1; Table 2) | pKi (Human recombinant MMP-14; Table 2) | pKi (Human recombinant MMP-2; Table 2) | pKi (Human recombinant MMP-1; Table 1) | pKi (Human recombinant MMP-14; Table 1) | pKi (Human recombinant MMP-2; Table 1)
1 | CCN1CCC(C(=O)NO)(S(=O)(=O)c2ccc(-c3ccc(Oc4ccccc4)cc3)cc2)CC1 [Example 135] | < 5.00 | 6.00 | 8.37 | – | – | –
2 | COCCN1CCC(C(=O)NO)(S(=O)(=O)c2ccc(-c3ccc(CCC(F)(F)C(F)(F)F)cc3)cc2)CC1 [Example 46] | – | – | – | < 5.00 | 5.73 | 9.68
3 | O=C(NO)C1(S(=O)(=O)c2ccc(-c3ccc(OCCCC(F)(F)F)cn3)cc2)CCOCC1 [Example 144] | 6.32 | 6.73 | 10.43 | – | – | –
4 | O=C(NO)C1(S(=O)(=O)c2ccc(-c3cnc(CCC(F)(F)C(F)(F)F)cn3)cc2)CCOCC1 [Example 55] | – | – | – | < 5.00 | 5.59 | 9.23
5 | O=C(NO)C1(S(=O)(=O)c2ccc(-c3ccc(CCCC(F)(F)F)cc3)cc2)CCOCC1 [Example 42] | – | – | – | 5.57 | 6.10 | 9.47
6 | O=C(NO)C1(S(=O)(=O)c2ccc(-c3ccc(CCCC(F)(F)F)cn3)cc2)CCN(C2CC2)CC1 [Example 51] | – | – | – | 5.02 | 5.72 | 9.80
7 | COCCN1CCC(C(=O)NO)(S(=O)(=O)c2ccc(-c3ccc(CCCC(F)(F)F)cn3)cc2)CC1 [Example 54] | – | – | – | 5.20 | 5.95 | 9.92
8 | COCCN1CCC(C(=O)NO)(S(=O)(=O)c2ccc(-c3ccc(-c4ccccc4)cc3)cc2)CC1 [Example 152] | 6.07 | 6.84 | 10.00 | – | – | –
9 | O=C(NO)C1(S(=O)(=O)c2ccc(-c3ccc(CCCC(F)(F)F)cc3)cc2)CCN(C2CC2)CC1 [Example 44] | – | – | – | 5.06 | 5.67 | 9.32
10 | O=C(NO)C1(S(=O)(=O)c2ccc(-c3noc(-c4ccc(F)cc4)n3)cc2)CCOCC1 [Example 134] | 5.23 | 7.17 | 8.95 | – | – | –
11 | CCN1CCC(C(=O)NO)(S(=O)(=O)c2ccc(-c3noc(-c4ccc(C(F)(F)F)cc4)n3)cc2)CC1 [Example 149] | < 5.00 | 6.93 | 9.12 | – | – | –
12 | CCCCOc1cnc(-c2ccc(S(=O)(=O)C3(C(=O)NO)CCOCC3)cc2)cn1 [Example 73] | 5.76 | 6.80 | 10.08 | – | – | –
13 | O=C(NO)C1(S(=O)(=O)c2ccc(-c3cnc(NCC4CC4)cn3)cc2)CCOCC1 [Example 128] | < 5.60 | < 5.60 | 8.29 | – | – | –
14 | O=C(NO)C1(S(=O)(=O)c2ccc(-c3ccc(OCCCC(F)(F)F)cc3)cc2)CCOCC1 [Example 74] | 5.79 | 6.23 | 9.52 | – | – | –
15 | CCN1CCC(C(=O)NO)(S(=O)(=O)c2ccc(-c3noc(-c4ccncc4)n3)cc2)CC1 [Example 148] | < 5.00 | 5.99 | 8.14 | – | – | –
16 | O=C(NO)C1(S(=O)(=O)c2ccc(-c3ccc(CCC(F)(F)C(F)(F)F)cn3)cc2)CCN(C2CC2)CC1 [Example 50] | – | – | – | 5.10 | 5.92 | 9.72
17 | O=C(NO)C1(S(=O)(=O)c2ccc(-c3ccc(CCC(F)(F)C(F)(F)F)cc3)cc2)CCOCC1 [Example 41] | – | – | – | 5.29 | 5.94 | 9.43
18 | CCOCCOc1ccc(-c2ccc(S(=O)(=O)C3(C(=O)NO)CCOCC3)cc2)cc1 [Example 37] | – | – | – | 5.84 | 6.20 | 10.05
19 | CCN1CCC(C(=O)NO)(S(=O)(=O)c2ccc(-c3ccc(-c4csc(C)n4)cc3)cc2)CC1 [Example 155] | 5.41 | 6.55 | 9.18 | – | – | –
20 | O=C(NO)C1(S(=O)(=O)c2ccc(-c3ccc(CCC(F)(F)C(F)(F)F)cn3)cc2)CCOCC1 [Example 36] | – | – | – | 5.33 | 6.28 | 10.15
21 | CC(F)(F)CCc1cnc(-c2ccc(S(=O)(=O)C3(C(=O)NO)CCOCC3)cc2)cn1 [Example 60] | – | – | – | < 5.00 | 5.73 | 9.33
22 | O=C(NO)C1(S(=O)(=O)c2ccc(-c3cnc(OCC(F)(F)C(F)(F)F)cn3)cc2)CCOCC1 [Example 154] | 5.74 | 6.31 | 9.89 | – | – | –
23 | CCN1CCC(C(=O)NO)(S(=O)(=O)c2ccc(-c3cnc(CCC(C)(F)F)cn3)cc2)CC1 [Example 64] | – | – | – | < 5.00 | < 5.00 | 8.78
24 | CCOc1ccc(-c2ccc(S(=O)(=O)C3(C(=O)NO)CCOCC3)cc2)cc1 [Example 163] | 6.49 | 7.25 | 10.70 | – | – | –
25 | O=C(NO)C1(S(=O)(=O)c2ccc(-c3ccc(-c4ccccc4F)cn3)cc2)CCN(C2CC2)CC1 [Example 150] | 5.82 | 6.51 | 9.43 | – | – | –
